Results: the NIST ThermoML archive (doi:10.1021/acs.jced.9b00752)
Values joined by “and” are separate entries in the source; they are usually repeats but may differ in a detail not shown here. Identical values can stand only once. ± gives the expanded uncertainty stated by the source.

Assay: mn = molality of the nth substance listed, in mol/kg
Settings: 100 kPa, Liquid, Vibrating tube method

N[C@@H](Cc1ccc(O)cc1)C(=O)O [3-(p-hydroxyphenyl)-L-alanine] + O
mass density
Settings	278.65 K	279.15 K	279.65 K	280.15 K	280.65 K	281.15 K	281.65 K	282.15 K	282.65 K	283.15 K
m1 = 0.0005	999.962 ± 0.1 kg/m3	999.948 ± 0.1 kg/m3	999.932 ± 0.1 kg/m3	999.91 ± 0.1 kg/m3	999.886 ± 0.1 kg/m3	999.858 ± 0.1 kg/m3	999.824 ± 0.1 kg/m3	999.79 ± 0.1 kg/m3	999.751 ± 0.1 kg/m3	999.71 ± 0.1 kg/m3
m1 = 0.001	999.995 ± 0.1 kg/m3	999.981 ± 0.1 kg/m3	999.964 ± 0.1 kg/m3	999.941 ± 0.1 kg/m3	999.918 ± 0.1 kg/m3	999.89 ± 0.1 kg/m3	999.857 ± 0.1 kg/m3	999.821 ± 0.1 kg/m3	999.781 ± 0.1 kg/m3	999.741 ± 0.1 kg/m3
m1 = 0.0011	1000.02 ± 0.1 kg/m3	1000.01 ± 0.1 kg/m3	999.989 ± 0.1 kg/m3	999.968 ± 0.1 kg/m3	999.946 ± 0.1 kg/m3	999.917 ± 0.1 kg/m3	999.883 ± 0.1 kg/m3	999.848 ± 0.1 kg/m3	999.809 ± 0.1 kg/m3	999.765 ± 0.1 kg/m3
m1 = 0.0022	1000.09 ± 0.1 kg/m3	1000.08 ± 0.1 kg/m3	1000.06 ± 0.1 kg/m3	1000.04 ± 0.1 kg/m3	1000.01 ± 0.1 kg/m3	999.984 ± 0.1 kg/m3	999.951 ± 0.1 kg/m3	999.916 ± 0.1 kg/m3	999.876 ± 0.1 kg/m3	999.835 ± 0.1 kg/m3
m1 = 0.0026	1000.11 ± 0.1 kg/m3	1000.1 ± 0.1 kg/m3	1000.08 ± 0.1 kg/m3	1000.06 ± 0.1 kg/m3	1000.03 ± 0.1 kg/m3	1000 ± 0.1 kg/m3	999.971 ± 0.1 kg/m3	999.937 ± 0.1 kg/m3	999.897 ± 0.1 kg/m3	999.854 ± 0.1 kg/m3
m1 = 0.0035	1000.18 ± 0.1 kg/m3	1000.16 ± 0.1 kg/m3	1000.14 ± 0.1 kg/m3	1000.12 ± 0.1 kg/m3	1000.1 ± 0.1 kg/m3	1000.07 ± 0.1 kg/m3	1000.03 ± 0.1 kg/m3	1000 ± 0.1 kg/m3	999.961 ± 0.1 kg/m3	999.919 ± 0.1 kg/m3
m1 = 0.0036	1000.18 ± 0.1 kg/m3	1000.16 ± 0.1 kg/m3	1000.14 ± 0.1 kg/m3	1000.12 ± 0.1 kg/m3	1000.1 ± 0.1 kg/m3	1000.07 ± 0.1 kg/m3	1000.04 ± 0.1 kg/m3	1000 ± 0.1 kg/m3	999.962 ± 0.1 kg/m3	999.92 ± 0.1 kg/m3
m1 = 0.0038	1000.18 ± 0.1 kg/m3	1000.17 ± 0.1 kg/m3	1000.15 ± 0.1 kg/m3	1000.13 ± 0.1 kg/m3	1000.1 ± 0.1 kg/m3	1000.08 ± 0.1 kg/m3	1000.04 ± 0.1 kg/m3	1000.01 ± 0.1 kg/m3	999.967 ± 0.1 kg/m3	999.925 ± 0.1 kg/m3
m1 = 0.0045	1000.23 ± 0.1 kg/m3 and 1000.24 ± 0.1 kg/m3	1000.22 ± 0.1 kg/m3 and 1000.23 ± 0.1 kg/m3	1000.2 ± 0.1 kg/m3 and 1000.21 ± 0.1 kg/m3	1000.18 ± 0.1 kg/m3 and 1000.19 ± 0.1 kg/m3	1000.15 ± 0.1 kg/m3 and 1000.16 ± 0.1 kg/m3	1000.13 ± 0.1 kg/m3 and 1000.14 ± 0.1 kg/m3	1000.09 ± 0.1 kg/m3 and 1000.1 ± 0.1 kg/m3	1000.06 ± 0.1 kg/m3 and 1000.07 ± 0.1 kg/m3	1000.02 ± 0.1 kg/m3 and 1000.03 ± 0.1 kg/m3	999.976 ± 0.1 kg/m3 and 999.985 ± 0.1 kg/m3
m1 = 0.0047	1000.24 ± 0.1 kg/m3	1000.22 ± 0.1 kg/m3	1000.21 ± 0.1 kg/m3	1000.18 ± 0.1 kg/m3	1000.16 ± 0.1 kg/m3	1000.13 ± 0.1 kg/m3	1000.1 ± 0.1 kg/m3	1000.06 ± 0.1 kg/m3	1000.02 ± 0.1 kg/m3	999.98 ± 0.1 kg/m3
m1 = 0.0053	1000.28 ± 0.1 kg/m3 and 1000.29 ± 0.1 kg/m3	1000.27 ± 0.1 kg/m3 and 1000.28 ± 0.1 kg/m3	1000.25 ± 0.1 kg/m3 and 1000.26 ± 0.1 kg/m3	1000.23 ± 0.1 kg/m3 and 1000.24 ± 0.1 kg/m3	1000.2 ± 0.1 kg/m3 and 1000.21 ± 0.1 kg/m3	1000.17 ± 0.1 kg/m3 and 1000.18 ± 0.1 kg/m3	1000.14 ± 0.1 kg/m3 and 1000.15 ± 0.1 kg/m3	1000.1 ± 0.1 kg/m3 and 1000.12 ± 0.1 kg/m3	1000.07 ± 0.1 kg/m3 and 1000.08 ± 0.1 kg/m3	1000.02 ± 0.1 kg/m3 and 1000.03 ± 0.1 kg/m3
m1 = 0.0055	1000.28 ± 0.1 kg/m3	1000.27 ± 0.1 kg/m3	1000.25 ± 0.1 kg/m3	1000.23 ± 0.1 kg/m3	1000.2 ± 0.1 kg/m3	1000.17 ± 0.1 kg/m3	1000.14 ± 0.1 kg/m3	1000.1 ± 0.1 kg/m3	1000.07 ± 0.1 kg/m3	1000.02 ± 0.1 kg/m3
